Source: ChEMBL document CHEMBL1136041, “Capped dipeptide alpha-ketoacid inhibitors of the HCV NS3 protease” (Bioorg Med Chem Lett, 2002)

Target: Hepatitis C virus serine protease, NS3/NS4A (Hepatitis C virus, UniProt A3EZI9+D2K2A8)
Test: Inhibitory concentration evaluated against NS3/4A protease.
Assay type: protein-complex assay, Hepacivirus hominis

Chain of Hepatitis C virus serine protease, NS3/NS4A (D2K2A8 whole entry): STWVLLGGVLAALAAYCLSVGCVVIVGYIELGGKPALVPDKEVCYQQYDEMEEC
Chain of Hepatitis C virus serine protease, NS3/NS4A (A3EZI9 whole entry): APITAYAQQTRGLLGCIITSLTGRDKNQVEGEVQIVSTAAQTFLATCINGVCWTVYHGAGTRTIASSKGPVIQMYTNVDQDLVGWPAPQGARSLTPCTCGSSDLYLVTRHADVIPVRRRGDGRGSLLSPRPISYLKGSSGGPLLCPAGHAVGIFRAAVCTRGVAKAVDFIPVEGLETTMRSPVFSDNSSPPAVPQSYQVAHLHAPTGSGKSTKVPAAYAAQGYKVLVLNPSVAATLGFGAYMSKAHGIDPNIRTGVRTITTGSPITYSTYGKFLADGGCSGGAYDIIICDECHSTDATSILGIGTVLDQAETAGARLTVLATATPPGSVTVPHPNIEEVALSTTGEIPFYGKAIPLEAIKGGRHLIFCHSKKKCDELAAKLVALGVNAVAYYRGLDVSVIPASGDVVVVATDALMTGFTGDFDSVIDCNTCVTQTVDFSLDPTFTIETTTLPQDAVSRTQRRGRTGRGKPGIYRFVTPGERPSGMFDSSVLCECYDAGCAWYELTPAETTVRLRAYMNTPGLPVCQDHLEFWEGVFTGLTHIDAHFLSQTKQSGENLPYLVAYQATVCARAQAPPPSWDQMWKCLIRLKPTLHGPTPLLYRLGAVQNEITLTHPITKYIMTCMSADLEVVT

| Compound | IC50 |
| --- | --- |
| CC(C)C[C@H](NC(=O)Cn1nc(-c2ccccc2)c2ccccc2c1=O)C(=O)N[C@@H](CC(F)F)C(=O)C(=O)O | > 200 µM |
| CC(C)C[C@H](NC(=O)Cn1c(-c2ccccc2)nc2ccccc21)C(=O)N[C@@H](CC(F)F)C(=O)C(=O)O | > 200 µM |
| CC(C)C[C@H](NC(=O)[C@H](O)c1ccccc1Cl)C(=O)N[C@@H](CC(F)F)C(=O)C(=O)O | 41 µM |
| CC(C)C[C@H](NC(=O)CC(c1ccccc1)c1ccccc1)C(=O)N[C@@H](CC(F)F)C(=O)C(=O)O | > 200 µM |
| CC(C)C[C@H](NC(=O)[C@H](O)c1cccs1)C(=O)N[C@@H](CC(F)F)C(=O)C(=O)O | 18 µM |
| COc1ccc(C(=O)N[C@@H](CC(C)C)C(=O)N[C@@H](CC(F)F)C(=O)C(=O)O)c(OC)c1OC | > 200 µM |
| CC(C)C[C@H](NC(=O)C(Cc1ccccc1)c1ccccc1)C(=O)N[C@@H](CC(F)F)C(=O)C(=O)O (some centres not stated) | > 30 µM |
| COc1ccc(C(Oc2ccccc2)C(=O)N[C@@H](CC(C)C)C(=O)N[C@@H](CC(F)F)C(=O)C(=O)O)cc1 (some centres not stated) | 18 µM |
| CC(C)C[C@H](NC(=O)[C@@H](O)c1ccccc1)C(=O)N[C@@H](CC(F)F)C(=O)C(=O)O | > 100 µM |
| CC(C)C[C@H](NC(=O)[C@H](O)c1ccc(C(F)(F)F)cc1)C(=O)N[C@@H](CC(F)F)C(=O)C(=O)O | 28 µM |
| CC(C)C[C@H](NC(=O)c1cccc(Oc2ccccc2)c1)C(=O)N[C@@H](CC(F)F)C(=O)C(=O)O | > 200 µM |

These reach a lower IC50. Values come first.

| IC50 | Compound |
| --- | --- |
| 7 µM | CC(C)C[C@H](NC(=O)C(Sc1ccccc1)c1ccccc1)C(=O)N[C@@H](CC(F)F)C(=O)C(=O)O (some centres not stated) |
| 13 µM | CC(C)C[C@H](NC(=O)[C@H](O)c1ccc(Cl)cc1)C(=O)N[C@@H](CC(F)F)C(=O)C(=O)O |
| 0.38 µM | CC(C)C[C@H](NC(=O)[C@@H](NC(=O)OC(C)(C)C)C1CCCC1)C(=O)N[C@@H](CC(F)F)C(=O)C(=O)O |
| 13 µM | COc1ccc([C@@H](O)C(=O)N[C@@H](CC(C)C)C(=O)N[C@@H](CC(F)F)C(=O)C(=O)O)cc1 |
| 7 µM | CC(C)C[C@H](NC(=O)[C@H](O)C1CCCCC1)C(=O)N[C@@H](CC(F)F)C(=O)C(=O)O |
| 3 µM | CC(C)C[C@H](NC(=O)[C@H](O)c1ccccc1)C(=O)N[C@@H](CC(F)F)C(=O)C(=O)O |
